Results reported in patent US20240261224A1, “FORMULATION OF A PAN-JAK INHIBITOR” (KINASET THERAPEUTICS, INC., priority 2022, published 2024).
Several values for one entry are separate records, joined by “and”; a condition that tells them apart may be missing. Equal entries are not always repeated. Where two headings read alike, the source gives them in different places.

Tests used:
[1] = Phase 1 clinical trial adverse events summary (Part 1 healthy volunteers); format: in vivo, human; settings: for Severe/serious TEAE, n (%) / Subjects with TEAE n, (%) / TEAE leading to discontinuation: Part 1 healthy volunteers
Procedure: (§1) A status summary of the phase 1 clinical trial recruitment is shown below in Table 18. Capsules filled with blend 2a were used to achieve a 0.6 mg target dose of Compound I (0.2 mg capsules×3). Capsules filled with blend 4 were used to achieve 2.0 mg, 4.0 mg, 6.0 mg, 8.0 mg, and 12.0 mg target doses of Compound I (2.0 mg capsule×1; 4.0 mg capsule×1; 2.0 mg capsules×3; 4.0 mg capsules×2; and 4.0 mg capsules×3, respectively). Twice daily dosing (BID) was achieved by repeating the preceding regime. For example, an 8.0 mg BID dosing regime is achieved by administering two doses of 4.0 mg capsules×2.

JAK1 = JAK1 (Homo sapiens, UniProt P23458); settings: cited from earlier work
Sequence of JAK1 (P23458 whole entry): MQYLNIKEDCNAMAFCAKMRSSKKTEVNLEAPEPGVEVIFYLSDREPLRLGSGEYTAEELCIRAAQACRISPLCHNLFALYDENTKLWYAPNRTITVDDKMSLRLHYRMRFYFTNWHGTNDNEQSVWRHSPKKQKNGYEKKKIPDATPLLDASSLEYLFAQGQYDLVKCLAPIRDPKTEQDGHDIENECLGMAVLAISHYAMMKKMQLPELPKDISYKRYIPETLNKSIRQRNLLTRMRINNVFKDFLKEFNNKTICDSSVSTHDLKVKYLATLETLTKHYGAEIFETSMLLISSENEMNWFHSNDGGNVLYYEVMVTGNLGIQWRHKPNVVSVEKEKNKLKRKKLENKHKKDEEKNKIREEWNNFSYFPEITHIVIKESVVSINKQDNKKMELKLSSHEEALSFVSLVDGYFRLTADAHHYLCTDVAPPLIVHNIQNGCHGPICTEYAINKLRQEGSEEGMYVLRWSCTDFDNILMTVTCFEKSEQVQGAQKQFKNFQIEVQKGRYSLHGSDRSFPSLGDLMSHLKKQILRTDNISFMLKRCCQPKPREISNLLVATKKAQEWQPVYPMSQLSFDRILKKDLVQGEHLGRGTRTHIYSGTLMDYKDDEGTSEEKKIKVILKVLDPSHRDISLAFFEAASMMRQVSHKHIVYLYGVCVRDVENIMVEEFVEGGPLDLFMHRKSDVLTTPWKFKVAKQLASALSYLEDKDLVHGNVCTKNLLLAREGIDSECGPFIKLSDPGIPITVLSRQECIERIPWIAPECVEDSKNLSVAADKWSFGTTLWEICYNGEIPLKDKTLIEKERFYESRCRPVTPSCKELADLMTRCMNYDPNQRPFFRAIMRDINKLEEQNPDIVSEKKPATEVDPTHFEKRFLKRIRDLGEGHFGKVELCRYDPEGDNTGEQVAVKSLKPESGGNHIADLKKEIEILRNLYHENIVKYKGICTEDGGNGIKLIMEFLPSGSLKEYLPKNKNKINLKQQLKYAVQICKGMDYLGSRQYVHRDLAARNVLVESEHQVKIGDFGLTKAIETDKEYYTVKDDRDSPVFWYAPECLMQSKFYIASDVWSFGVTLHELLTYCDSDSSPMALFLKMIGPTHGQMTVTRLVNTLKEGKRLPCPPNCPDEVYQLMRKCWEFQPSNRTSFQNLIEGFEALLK

[2] = tested on: induced sputum eosinophil count; test: Phase 1 Part 3 induced sputum differential eosinophil count; format: in vivo, human; settings: 4 mg BID
Description: Day 10 sputum and serum inflammatory biomarkers are shown below in Table 29. Part 3 included an evaluation of sputum samples obtained by sputum induction in accordance with European Respiratory Society guidelines (Paggiaro, et al., Eur. Respir. J. 2002, 20: Suppl. 37, 3 s). Subjects were randomized into sputum-producer and non-sputum producer strata with a target minimum of approximately 50% of subjects able to provide an adequate sputum sample at screening. […] Differential cell counts (DCC) were performed on samples judged adequate per standard procedure and patients with evaluable baseline (screening) and Day 10 (or Day 11 if Day 10 was not adequate) post-treatment samples were considered for analyses that included individual and mean absolute and percentage differential eosinophil counts.
In the sputum producer stratum, 6 Compound I (active) subjects and 2 placebo subjects were identified as having adequate baseline and post-treatment sputum samples and the resultant data was used to determine change from baseline, mean change from baseline, and mean placebo-corrected change from baseline (Compound I vs placebo). […] At baseline, all subjects manifested a percent differential eosinophil count >3%, indicative of active eosinophilic inflammation. By Day 10, 66% ( 4/6) of active subjects had improved below 3% eosinophils, with 50% ( 3/6) below a more stringent threshold of 1.9% (Reddel et al., Am. J. Respir. Crit. Care Med. 2009, 180, 59).

[3] = tested on: fractional exhaled nitric oxide (FeNO); test: Phase 1 Part 3: FeNO reduction in moderate to severe asthma on background ICS/LABA; format: in vivo, human; settings: for Mean Placebo-Corrected % Change from Day 1 Pre-Dose or from Patient's Baseline (FeNO): 4 mg BID (n = 5), Baseline FeNO >35 ppb and blood eosinophils >250 cells/μL; for % subjects achieving FeNO level <25 ppb on Day 10: 4.0 mg BID
Procedure: as §1
Particular FeNO reduction data from FIG. 9 is highlighted below in Table 25. […] More specifically, subjects with Day 1 pre-dose FeNO levels between 33 and 280 ppb reported reductions greater than 20% by Day 10 and subjects with Day 1 pre-dose FeNO levels ranging from 33 to 118 ppb recorded levels less than 25 ppb by Day 10.
Part 3 involved the administration of a single dose regimen (4 mg BID), to subjects (17 active:6 placebo) with moderate to severe asthma treated with background ISC/LABA therapy, over a 10-day period. Blood samples were collected to enable the measurement of KN-002 concentrations in plasma. The resultant data was used to determine the pharmacokinetic parameters at Day 10 representing the Day on which the final dose was received.

NHP = test: 13-week inhalation toxicology study, NHP model; format: in vivo
Procedure: (§2) Lactose/MgSt-based formulations of Compound I were evaluated during a 13-week inhalation toxicology study in an NHP model, and the corresponding results are presented in Table 16 below. […] The NOAEL was assigned to the highest dose study (7.9 mg/kg/day).

[4] = 13-week inhalation toxicology study, NHP model; format: in vivo; settings: in vivo, inhaled or intranasal, NHP; for AUC(0-t): monkey, read-out: AUC0-24
Procedure: as §2

[5] = Day 10, Mean of active subjects (n = 6)
[6] = Day 10, active (n = 6) vs placebo (n = 2)
[7] = Day 10, individual active subjects 13026, 13027, 13038, 13073, 13095, 13097 (c1-c6)
[8] = Mean of active subjects (n = 6)
[9] = individual active subjects 13026, 13027, 13038, 13073, 13095, 13097 (c1-c6)

## Cn1c(=O)n([C@H]2CCCN(C(=O)CC#N)C2)c2nc(-c3cnn4ccccc34)ccc21 [Compound I, (S)-3-(3-(1-methyl-2-oxo-5-(pyrazolo[1,5-a]pyridine-3-yl)-1H-imidazo[4,5-b]pyridine-3(2H)-yl)piperidin-1-yl)-3-oxopropanenitrile]
[1]; 0.2 mg (n = 6)
  Severe/serious TEAE, n (%): 0
  Subjects with TEAE n, (%): 0
  TEAE leading to discontinuation: 0
[1]; 0.6 mg (n = 7)
  Severe/serious TEAE, n (%): 0
  Subjects with TEAE n, (%): 2 (29%)
  TEAE leading to discontinuation: 1
[1]; 2.0 mg (n = 6)
  Severe/serious TEAE, n (%): 0
  Subjects with TEAE n, (%): 2 (33%)
  TEAE leading to discontinuation: 0
[1]; 4.0 mg (n = 6)
  Severe/serious TEAE, n (%): 0
  Subjects with TEAE n, (%): 0
  TEAE leading to discontinuation: 0
[1]; 6.0 mg (n = 6)
  Severe/serious TEAE, n (%): 0
  Subjects with TEAE n, (%): 0
  TEAE leading to discontinuation: 0
[1]; 12.0 mg (n = 6)
  Severe/serious TEAE, n (%): 0
  Subjects with TEAE n, (%): 0
  TEAE leading to discontinuation: 0
[1]; phase 1 clinical trial
  Changes in cardiovascular endpoints (ECG and vital signs): No treatment-related clinically relevant changes
  Severe or serious adverse events: No severe or serious adverse events were observed
[1]; phase 1 clinical trial, per investigator
  Changes in hematology, biochemistry or urinalysis parameters including those influenced by JAK inhibition: No clinically relevant changes
JAK1
  Inhibition of JAK1: potent inhibitor
[2]; [5]
  Induced sputum % differential eosinophil count, % Change from Screening: −65%
  Induced sputum % differential eosinophil count, Change from Screening: −6.8%
  Induced sputum absolute differential eosinophil count, % Change from Screening: −79%
  Induced sputum absolute differential eosinophil count, Change from Screening: −0.15 10^6/g
[2]; [6]
  Induced sputum % differential eosinophil count, Mean placebo-corrected change: −21.3%
  Induced sputum absolute differential eosinophil count, Mean placebo-corrected change: −0.22 10^6/g
[2]; [7]
  Induced sputum % differential eosinophil count, % Change from Screening: −54% and −48% and −81% and −64% and −75% and −94%
  Induced sputum % differential eosinophil count, Change from Screening: −8.3% and −2.3% and −4.3% and −18.8% and −3.0% and −4.5%
  Induced sputum % differential eosinophil count, Reduced to normal level (<3%): No (2×) and Yes (4×)
  Induced sputum absolute differential eosinophil count, % Change from Screening: −70% and −75% (2×) and −89% and −88% and −100%
  Induced sputum absolute differential eosinophil count, Change from Screening: −0.16 10^6/g and −0.09 10^6/g and −0.08 10^6/g and −0.33 10^6/g and −0.07 10^6/g and −0.17 10^6/g
[2]; by Day 10 (3/6)
  Active subjects below more stringent threshold of 1.9% eosinophils (sputum): 50%
[2]; by Day 10 (4/6)
  Active subjects improved below 3% eosinophils (sputum percent differential count): 66%
[2]; [8]
  Induced sputum % differential eosinophil count, Day 10 level: 3.7%
  Induced sputum absolute differential eosinophil count, Day 10 level: 0.04 10^6/g
[2]; [9]
  Induced sputum % differential eosinophil count, Day 10 level: 7.0% and 2.5% and 1.0% (2×) and 10.5% and 0.3%
  Induced sputum absolute differential eosinophil count, Day 10 level: 0.07 10^6/g and 0.03 10^6/g and 0.01 10^6/g (2×) and 0.12 10^6/g and 0.001 10^6/g
[3]; Day 10 + 3 hrs
  Mean Placebo-Corrected % Change from Day 1 Pre-Dose or from Patient's Baseline (FeNO): −37%
[3]; Day 10 + 6 hrs
  Mean Placebo-Corrected % Change from Day 1 Pre-Dose or from Patient's Baseline (FeNO): −43%
[3]; Day 10 + 12 hrs
  Mean Placebo-Corrected % Change from Day 1 Pre-Dose or from Patient's Baseline (FeNO): −47%
[3]; Day 10 mean
  Mean Placebo-Corrected % Change from Day 1 Pre-Dose or from Patient's Baseline (FeNO): −43%
[3]; Day 10 pre-dose
  Mean Placebo-Corrected % Change from Day 1 Pre-Dose or from Patient's Baseline (FeNO): −44%
[3]; ITT
  % subjects achieving FeNO level <25 ppb on Day 10: 59%
[3]; 4 mg BID, ITT (n = 17), Day 10 + 3 hours
  Mean placebo-corrected % FeNO reduction from Day 1 pre-dose: −13.7%
[3]; 4 mg BID, ITT (n = 17), Day 10 + 6 hours
  Mean placebo-corrected % FeNO reduction from Day 1 pre-dose: −24.0%
[3]; 4 mg BID, ITT (n = 17), Day 10 + 12 hours
  Mean placebo-corrected % FeNO reduction from Day 1 pre-dose: −36.3%
[3]; 4 mg BID, ITT (n = 17), Day 10 mean
  Mean placebo-corrected % FeNO reduction from Day 1 pre-dose: −24.2%
[3]; 4 mg BID, ITT (n = 17), Day 10 pre-dose
  Mean placebo-corrected % FeNO reduction from Day 1 pre-dose: −22.9%
[3]; PP (excludes Day 1 pre-dose FeNO <30 ppb)
  % subjects achieving FeNO level <25 ppb on Day 10: 52%
[3]; 4 mg BID, PP (n = 15, excludes Day 1 pre-dose FeNO <30 ppb), Day 10 + 3 hours
  Mean placebo-corrected % FeNO reduction from Day 1 pre-dose: −24.8%
[3]; 4 mg BID, PP (n = 15, excludes Day 1 pre-dose FeNO <30 ppb), Day 10 + 6 hours
  Mean placebo-corrected % FeNO reduction from Day 1 pre-dose: −33.3%
[3]; 4 mg BID, PP (n = 15, excludes Day 1 pre-dose FeNO <30 ppb), Day 10 + 12 hours
  Mean placebo-corrected % FeNO reduction from Day 1 pre-dose: −37.0%
[3]; 4 mg BID, PP (n = 15, excludes Day 1 pre-dose FeNO <30 ppb), Day 10 mean
  Mean placebo-corrected % FeNO reduction from Day 1 pre-dose: −31.9%
[3]; 4 mg BID, PP (n = 15, excludes Day 1 pre-dose FeNO <30 ppb), Day 10 pre-dose
  Mean placebo-corrected % FeNO reduction from Day 1 pre-dose: −32.7%
[3]; 4 mg BID, subjects with Day 1 pre-dose FeNO levels between 33 and 280 ppb
  FeNO reductions by Day 10: greater than 20%
[3]; 4 mg BID, subjects with Day 1 pre-dose FeNO levels ranging from 33 to 118 ppb
  FeNO levels by Day 10: less than 25 ppb
[3]; Blood eosinophil cut-off ≥0.15 × 10^9/L (n = 16), Day 10 + 3 hours
  Mean placebo-corrected change in FeNO from Day 1 pre-dose, blood eosinophil subgroup: −26
[3]; Blood eosinophil cut-off ≥0.15 × 10^9/L (n = 16), Day 10 + 6 hours
  Mean placebo-corrected change in FeNO from Day 1 pre-dose, blood eosinophil subgroup: −35
[3]; Blood eosinophil cut-off ≥0.15 × 10^9/L (n = 16), Day 10 + 12 hours
  Mean placebo-corrected change in FeNO from Day 1 pre-dose, blood eosinophil subgroup: −52
[3]; Blood eosinophil cut-off ≥0.15 × 10^9/L (n = 16), Day 10 mean
  Mean placebo-corrected change in FeNO from Day 1 pre-dose, blood eosinophil subgroup: −37
[3]; Blood eosinophil cut-off ≥0.15 × 10^9/L (n = 16), Day 10 pre-dose
  Mean placebo-corrected change in FeNO from Day 1 pre-dose, blood eosinophil subgroup: −34
[3]; Blood eosinophil cut-off ≥0.3 × 10^9/L (n = 11), Day 10 + 3 hours
  Mean placebo-corrected change in FeNO from Day 1 pre-dose, blood eosinophil subgroup: −44
[3]; Blood eosinophil cut-off ≥0.3 × 10^9/L (n = 11), Day 10 + 6 hours
  Mean placebo-corrected change in FeNO from Day 1 pre-dose, blood eosinophil subgroup: −54
[3]; Blood eosinophil cut-off ≥0.3 × 10^9/L (n = 11), Day 10 + 12 hours
  Mean placebo-corrected change in FeNO from Day 1 pre-dose, blood eosinophil subgroup: −75
[3]; Blood eosinophil cut-off ≥0.3 × 10^9/L (n = 11), Day 10 mean
  Mean placebo-corrected change in FeNO from Day 1 pre-dose, blood eosinophil subgroup: −57
[3]; Blood eosinophil cut-off ≥0.3 × 10^9/L (n = 11), Day 10 pre-dose
  Mean placebo-corrected change in FeNO from Day 1 pre-dose, blood eosinophil subgroup: −53
NHP; NHP, 13-week inhalation
  Treatment-related effects on clinical signs, bodyweight, food consumption, ophthalmoscopy, blood chemistry, urinalysis or macroscopic pathology: No treatment-related effects
NHP; target delivered dose 0.9 mg/kg/day (low dose)
  MMAD: 1.9 μm
NHP; target delivered dose 2.7 mg/kg/day (mid dose)
  MMAD: 2.3 μm
NHP; target delivered dose 8.0 mg/kg/day (high dose)
  MMAD: 2.7 μm
[4]; 0.9 mg/kg/day, inhaled 0.9 mg/kg/day, Day 1
  AUC(0-t): 203 ng·h/mL
[4]; 0.9 mg/kg/day, inhaled 0.9 mg/kg/day, Week 13
  AUC(0-t): 167 ng·h/mL
[4]; 2.7 mg/kg/day, inhaled 2.7 mg/kg/day, Day 1
  AUC(0-t): 408 ng·h/mL
[4]; 2.7 mg/kg/day, inhaled 2.7 mg/kg/day, Week 13
  AUC(0-t): 361 ng·h/mL
[4]; 8 mg/kg/day, inhaled 8.0 mg/kg/day, Day 1
  AUC(0-t): 903 ng·h/mL
[4]; 8 mg/kg/day, inhaled 8.0 mg/kg/day, Week 13
  AUC(0-t): 1160 ng·h/mL
[4]; non-human primate (NHP), 13-week inhalation, highest dose
  NOAEL at 13 weeks: 7.9 mg/kg/day
